In patent publication US20060188898A1, “Markers for roscovitine” (Cyclacel Limited, priority 2003, published 2006):

Legend:
CDK7 = CDK7 (Homo sapiens, UniProt P50613); details: cited from earlier work
cell cycle progression = details: cited from earlier work
HT29 colon cancer cells [1] = experiment: Western blotting of protein expression in treated HT29 cells
Procedure: HT29 colon cancer cells were seeded into T175 flasks at 3×10^6 cells per flask and allowed to attach for 48 h. […] A cell pellet was made for protein analysis and RNA analysis.
To harvest cells, the medium was removed and cells were incubated with 5 ml trypsin for 5 min at 37° C. to detach them from the plastic. The cells were then pelleted, washed in ice cold PBS and resuspended in ice cold lysis buffer containing 50 mM HEPES pH7.4, 250 mM NaCl, 0.1% NP40, 1 mM DTT, 1 mM EDTA, 1 mM NaF, 10 mM β-glycerophosphate, 0.1 mM sodium orthovanadate and 1 complete protease inhibitor cocktail tablet (Roche, East Sussex, UK) per 10 ml of lysis buffer for 30 minutes on ice. Lysates were centrifuged at approx. 18, 000×g for 10 minutes at 4° C. to remove cellular debris. The supernatant was stored at −80° C. prior to use. The protein concentration of lysates was determined using the BCA protein assay (Pierce, Rockford, USA). Proteins were separated by SDS-PAGE using Novex precast tris-glycine gels (Invitrogen, Groningen, The Netherlands) and transferred to Immobilon-P membranes (Millipore, Bedford, USA). Membranes were blocked for 1 hour in TBS™ 50 mM Tris pH7.5, 150 mM NaCl, 0.1% Tween 20 (Sigma, Dorset, UK) and 3% milk. Immunoblotting with primary antibodies diluted in TBS™ was performed at 4° C. overnight, followed by a 1 hour incubation with HRP-conjugated secondary antibodies at room temperature. Membranes were washed with ECL reagents and exposed to Hyperfilm (Amersham Pharmacia Biotech, Buckinghamshire, UK).

HT29 colon cancer cells [2] = experiment: cDNA microarray analysis of mRNA expression in treated HT29 cells; type: cell-based
Source text: Total RNA was extracted from cell pellets using TriZol (Life Technologies) and mRNA was purified using the Qiagen Oligotex system. mRNA from control and treated cells was labelled with either Cy3 or Cy5 (NEN or Amersham) fluorescent dCTPs respectively, creating cDNA probes. cDNA microarray slides are made and used as described in Eisen, MB and Brown PO. (1999) DNA Arrays for Analysis of Gene Expression. Methods in Enzymology 303:179-205.
The cDNA probes were then hybridised to the cDNA microarray slides overnight and then washed and scanned using an Axon Labs GenePix 4000B scanner. The slides were verified using GenePix software and normalised prior to analysis in GeneSpring.
A 2 fold cut-off was used to assign significance to a change in mRNA expression. Therefore, any mRNA with a normalised ratio of medians less than 0.5 (FIGS. 1, 3, 5 and 7) or greater than 2 (FIGS. 2, 4, 6 and 8) is deemed significant.

CDK9 = CDK9 (Homo sapiens, UniProt P50750); details: cited from earlier work
[3] = 50 μM CYC202, time course 4-48 h, Western blot
[4] = 50 μM CYC202, time course 4-48 h

CDK9, sequence (P50750 whole entry, species assumed): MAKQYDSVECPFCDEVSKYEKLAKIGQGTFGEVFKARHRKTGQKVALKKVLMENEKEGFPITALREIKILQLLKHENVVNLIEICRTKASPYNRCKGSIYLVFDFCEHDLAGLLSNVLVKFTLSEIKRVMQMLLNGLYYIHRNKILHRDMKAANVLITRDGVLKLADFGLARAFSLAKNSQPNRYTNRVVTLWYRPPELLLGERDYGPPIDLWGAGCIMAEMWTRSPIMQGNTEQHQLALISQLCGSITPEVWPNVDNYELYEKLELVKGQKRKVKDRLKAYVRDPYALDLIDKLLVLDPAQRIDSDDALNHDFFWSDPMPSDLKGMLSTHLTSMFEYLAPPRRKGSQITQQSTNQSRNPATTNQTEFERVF
CDK9, sequence (O60563 whole entry partner, species assumed): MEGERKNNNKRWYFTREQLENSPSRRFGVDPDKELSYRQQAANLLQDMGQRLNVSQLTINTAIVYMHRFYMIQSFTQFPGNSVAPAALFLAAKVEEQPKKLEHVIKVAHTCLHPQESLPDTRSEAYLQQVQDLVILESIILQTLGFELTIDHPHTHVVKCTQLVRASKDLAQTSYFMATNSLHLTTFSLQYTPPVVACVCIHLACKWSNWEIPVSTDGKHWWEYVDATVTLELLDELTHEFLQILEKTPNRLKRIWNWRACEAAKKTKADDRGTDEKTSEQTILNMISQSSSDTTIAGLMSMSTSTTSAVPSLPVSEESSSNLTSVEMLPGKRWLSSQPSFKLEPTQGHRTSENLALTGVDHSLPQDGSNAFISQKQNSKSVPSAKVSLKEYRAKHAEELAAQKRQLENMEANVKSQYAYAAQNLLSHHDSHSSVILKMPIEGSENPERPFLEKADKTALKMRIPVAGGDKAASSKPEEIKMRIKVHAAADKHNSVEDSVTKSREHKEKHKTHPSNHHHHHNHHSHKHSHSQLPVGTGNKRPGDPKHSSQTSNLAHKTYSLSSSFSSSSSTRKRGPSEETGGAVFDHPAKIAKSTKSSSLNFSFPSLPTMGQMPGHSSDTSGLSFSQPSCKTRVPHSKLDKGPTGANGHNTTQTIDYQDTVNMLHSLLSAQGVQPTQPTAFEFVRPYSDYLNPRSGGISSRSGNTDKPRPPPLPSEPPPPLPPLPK
CDK7, sequence (P50613 whole entry, species assumed): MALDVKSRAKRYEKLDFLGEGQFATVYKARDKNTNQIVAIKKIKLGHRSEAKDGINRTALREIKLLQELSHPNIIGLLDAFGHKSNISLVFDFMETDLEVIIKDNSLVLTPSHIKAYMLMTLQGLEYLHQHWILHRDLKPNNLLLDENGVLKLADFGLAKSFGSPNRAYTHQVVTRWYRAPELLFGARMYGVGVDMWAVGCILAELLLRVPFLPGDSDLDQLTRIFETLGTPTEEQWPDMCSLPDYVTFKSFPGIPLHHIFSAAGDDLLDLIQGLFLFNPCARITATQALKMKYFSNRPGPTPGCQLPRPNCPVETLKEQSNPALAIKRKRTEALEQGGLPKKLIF
CDK7, sequence (P51946 whole entry partner, species assumed): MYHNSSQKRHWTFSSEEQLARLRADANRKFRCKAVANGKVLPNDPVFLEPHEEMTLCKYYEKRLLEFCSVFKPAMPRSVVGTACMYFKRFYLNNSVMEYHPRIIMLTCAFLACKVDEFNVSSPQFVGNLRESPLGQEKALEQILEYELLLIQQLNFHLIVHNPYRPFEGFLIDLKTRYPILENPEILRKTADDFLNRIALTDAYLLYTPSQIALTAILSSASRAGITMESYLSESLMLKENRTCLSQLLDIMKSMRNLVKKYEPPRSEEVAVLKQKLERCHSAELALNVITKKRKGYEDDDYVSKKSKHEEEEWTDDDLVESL

## CC[C@H](CO)Nc1nc(NCc2ccccc2)c2ncn(C(C)C)c2n1 [CYC202, 2-(R)-(1-ethyl-2-hydroxyethylamino)-6-benzylamino-9-isopropylpurine]
CDK7
  inhibition of CDK7: inhibit
Cell cycle progression
  effect on cell cycle progression: block cell cycle progression in late G1/early S and in M-phase
HT29 colon cancer cells [1]; 50 μM CYC202, 4 h and 12 h, Western blot, phosphorylated, active form
  c-JUN protein expression: induced at 4 h and 12 h
HT29 colon cancer cells [1]; 50 μM CYC202, Western blot
  EGR-1 protein expression: transiently induced at 12 h
HT29 colon cancer cells [1]; 50 μM CYC202, after 24 h, Western blot
  c-JUN protein expression: lost after 24 h
HT29 colon cancer cells [1]; [3]
  aurora 1 protein expression: markedly inhibited
  cyclin B2 protein expression: markedly inhibited
  polo-like kinase 1 protein expression: markedly inhibited
HT29 colon cancer cells [2]; 50 μM CYC202, 4-48 h
  c-JUN mRNA expression: induced to significant levels from 4 h and is maintained at that level for the duration of the experiment
HT29 colon cancer cells [2]; 50 μM CYC202, 4-48 h, two fold cut off
  EGR-1 mRNA expression: induced from as early as 4 h and is maintained above the two fold cut off for the duration of the experiment
HT29 colon cancer cells [2]; [4]
  aurora 1 mRNA expression: markedly inhibited
  cyclin B2 mRNA expression: markedly inhibited
  polo-like kinase 1 mRNA expression: markedly inhibited
CDK9
  inhibition of CDK9: inhibit
